Results as given in paper PMC11078956, “Structural investigation of interactions between halogenated flavonoids and the lipid membrane along with their role as cytotoxic agents” (Scientific Reports, 2024).

test system: RDSVS-TCC1 cells; assay: MTT cytotoxicity, RDSVS-TCC1; assay type: cell-based, canine; details: Canis lupus familiaris, 72 h, mean ± SD, read-out: IC50 values after 72 h
Excerpt: (§1) The study involved four canine cancer cell lines: RDSVS-TCC1 and K9NK (bladder cancer), CLBL-1 (B-cell lymphoma), GL-1 (B/T-cell leukemia) and noncancerous cell line CF2TH (fetal canine thymus). CLBL-1 was obtained from Barbara C.Ruetgen from the Institute of Immunology, Department of Pathobiology, University of Veterinary Medicine, Vienna[48]. GL-1 from Yasuhito Fujino and Hajime Tsujimoto of the University of Tokyo, Department of Veterinary Internal Medicine[49]. The CF2TH cell line was purchased from American Type Culture Collection (ATCC, Rockville, MD, USA).
(§2) The cell lines were maintained in RPMI- 1640 (CLBL-1, GL-1 and CF2TH) (Gibco, Grand Island, NY, USA) or DMEM (Institute of Immunology and Experimental Therapy, Polish Academy of Sciences, Wrocław, Poland) (RDSVS-TCC1, K9NK) culture medium supplemented with 10% fetal bovine serum FBS (Gibco, Grand Island, NY, USA), 100 units/mL penicillin and […] streptomycin and 1% of L-glutamine (Sigma Aldrich, Steinheim, Germany).
(§3) The cytotoxicity assay was determined by MTT test after 72 h of treatment, according to the procedure described previously[50] with minor modifications.
(§4) In summary, the cells plated at the density of 3*10^4 (k9NK, RDSVS-TCC1), 2*10^5 (CLBL-1, GL-1) and 7.5*10^3 (CF2TH) per mililiter were seeded in 96-well plates (NUNC, Denmark).
(§5) The concentration of tested flavonoids was in the range 1.25–50 µM and DMSO concentration was < 1% in each dilution which is considered harmless to the cells). After incubation for 72 h, 10 µl of 3-(4,5-dimethylthiazol-2-yl)-2,5-diphenyltetrazolium bromide (MTT) solution was added to each well followed by 4 h incubation, then 40 μL of lysis buffer were added. The optical density (OD) of formazan formed from MTT was measured after 24 h using a spectrophotometric microplate reader (Spark, Tecan, Männedorf, Switzerland) at […] 570 nm.
(§6) The results were: determined from more than three independent experiments (three wells each) and presented as mean IC50 value ± SD.

SMILES	IC50
O=c1cc(-c2ccccc2Cl)oc2ccccc12 [D1, 2′-chloroflavone]	32.6 ± 8.04 µM
O=c1cc(-c2cccc(Cl)c2)oc2ccccc12 [D2, 3′-chloroflavone]	31.6 ± 5.97 µM
O=c1cc(-c2ccc(Cl)cc2)oc2ccccc12 [D3, 4′-chloroflavone]	28.2 ± 5.62 µM
O=c1cc(-c2ccccc2)oc2ccc(Cl)cc12 [D4, 6-chloroflavone]	58.7 ± 13.3 µM
O=c1cc(-c2ccccc2)oc2c(Cl)cc(Cl)cc12 [D5, 6,8-dichloroflavone]	43 ± 11.3 µM
O=c1cc(-c2ccccc2)oc2c(Br)cc(Cl)cc12 [D6, 8-bromo-6-chloroflavone]	37.7 ± 14.4 µM

test system: K9NK cells; assay: MTT cytotoxicity, K9NK; assay type: cell-based, canine; details: Canis lupus familiaris, 72 h, mean ± SD, read-out: IC50 values after 72 h
Excerpt: as §1, §2, §3, §4, §5, §6

SMILES	IC50
O=c1cc(-c2ccccc2Cl)oc2ccccc12 [D1, 2′-chloroflavone]	59.9 ± 14.7 µM
O=c1cc(-c2cccc(Cl)c2)oc2ccccc12 [D2, 3′-chloroflavone]	31.2 ± 6.87 µM
O=c1cc(-c2ccc(Cl)cc2)oc2ccccc12 [D3, 4′-chloroflavone]	19.4 ± 6.75 µM
O=c1cc(-c2ccccc2)oc2ccc(Cl)cc12 [D4, 6-chloroflavone]	35.6 ± 3.41 µM
O=c1cc(-c2ccccc2)oc2c(Cl)cc(Cl)cc12 [D5, 6,8-dichloroflavone]	30.5 ± 13.8 µM
O=c1cc(-c2ccccc2)oc2c(Br)cc(Cl)cc12 [D6, 8-bromo-6-chloroflavone]	29.1 ± 16.2 µM

test system: GL-1 cells; assay: MTT cytotoxicity, GL-1; assay type: cell-based, canine; details: Canis lupus familiaris; GL-1, MTT, 72 h, mean ± SD; read-out: IC50 values after 72 h
Excerpt: as §1, §2, §3, §4, §5, §6

SMILES	IC50
O=c1cc(-c2ccccc2Cl)oc2ccccc12 [D1, 2′-chloroflavone]	26.5 ± 3.05 µM
O=c1cc(-c2cccc(Cl)c2)oc2ccccc12 [D2, 3′-chloroflavone]	26.5 ± 4.57 µM
O=c1cc(-c2ccc(Cl)cc2)oc2ccccc12 [D3, 4′-chloroflavone]	35.1 ± 6.17 µM
O=c1cc(-c2ccccc2)oc2ccc(Cl)cc12 [D4, 6-chloroflavone]	62.4 ± 2.89 µM
O=c1cc(-c2ccccc2)oc2c(Cl)cc(Cl)cc12 [D5, 6,8-dichloroflavone]	38.8 ± 6.48 µM
O=c1cc(-c2ccccc2)oc2c(Br)cc(Cl)cc12 [D6, 8-bromo-6-chloroflavone]	47.2 ± 1.41 µM

test system: CLBL-1 cells; assay: MTT cytotoxicity, CLBL-1; assay type: cell-based, canine; details: Canis lupus familiaris; CLBL-1, MTT, 72 h, mean ± SD; read-out: IC50 values after 72 h
Excerpt: as §1, §2, §3, §4, §5, §6

SMILES	IC50
O=c1cc(-c2ccccc2Cl)oc2ccccc12 [D1, 2′-chloroflavone]	26.6 ± 3.61 µM
O=c1cc(-c2cccc(Cl)c2)oc2ccccc12 [D2, 3′-chloroflavone]	26.3 ± 6.33 µM
O=c1cc(-c2ccc(Cl)cc2)oc2ccccc12 [D3, 4′-chloroflavone]	32.8 ± 2.11 µM
O=c1cc(-c2ccccc2)oc2ccc(Cl)cc12 [D4, 6-chloroflavone]	74.4 ± 28.7 µM
O=c1cc(-c2ccccc2)oc2c(Cl)cc(Cl)cc12 [D5, 6,8-dichloroflavone]	76.4 ± 23.2 µM
O=c1cc(-c2ccccc2)oc2c(Br)cc(Cl)cc12 [D6, 8-bromo-6-chloroflavone]	38.1 ± 7.81 µM

test system: CF2TH cells; assay: MTT cytotoxicity, CF2TH normal cell line; assay type: cell-based, canine; details: Canis lupus familiaris, 72 h, mean ± SD, read-out: IC50 values after 72 h
Excerpt: as §1, §2, §3, §4, §5, §6

SMILES	IC50
O=c1cc(-c2ccccc2Cl)oc2ccccc12 [D1, 2′-chloroflavone]	28.2 ± 6.6 µM
O=c1cc(-c2cccc(Cl)c2)oc2ccccc12 [D2, 3′-chloroflavone]	22.9 ± 6.88 µM
O=c1cc(-c2ccc(Cl)cc2)oc2ccccc12 [D3, 4′-chloroflavone]	28.4 ± 5.02 µM
O=c1cc(-c2ccccc2)oc2ccc(Cl)cc12 [D4, 6-chloroflavone]	80.9 ± 14.1 µM
O=c1cc(-c2ccccc2)oc2c(Cl)cc(Cl)cc12 [D5, 6,8-dichloroflavone]	28.5 ± 18 µM
O=c1cc(-c2ccccc2)oc2c(Br)cc(Cl)cc12 [D6, 8-bromo-6-chloroflavone]	38.1 ± 7.87 µM

test system: RDSVS-TCC1, GL-1, CLBL-1, CF2TH cells; assay: MTT cytotoxicity, all lines tested except K9NK; assay type: cell-based, canine; details: Canis lupus familiaris, 72 h
Excerpt: as §1, §2, §3, §4, §5, §6

SMILES	IC50
O=c1cc(-c2ccccc2Cl)oc2ccccc12 [D1, 2′-chloroflavone]	~30 µM
O=c1cc(-c2cccc(Cl)c2)oc2ccccc12 [D2, 3′-chloroflavone]	~30 µM
O=c1cc(-c2ccc(Cl)cc2)oc2ccccc12 [D3, 4′-chloroflavone]	~30 µM

test system: not listed separately; assay: Hemolysis of red blood cells; assay type: cell-based; details: human, human red blood cells (erythrocytes), 30 μM, read-out: degree of haemolysis
Method: The cytotoxicity level of the compounds was assessed through a haemolytic activity test, measuring the impact of six compounds at concentrations of […] on human red blood cells (RBCs). According to toxicity categorization, compounds are considered highly toxic if they cause a haemolysis rate of 90–100% and are considered non-toxic if the haemolysis rate falls within the range of 0–9%[28].
Hemolysis, a method to assess the release of hemoglobin from red blood cells (RBCs), was comprehensively explained in our prior research.
For erythrocytes with a hematocrit level of 12%, the compounds were introduced at concentrations of 10, 20, 40 and 60 μM. The prepared samples were kept at 37 °C for 1 and 24 h.
After the incubation period, the samples underwent centrifugation, and the hemoglobin concentration in the supernatants was quantified using a UV–VIS spectrophotometer (Specord 40, AnalytikJena) at a wavelength of 540 nm. The percentage of RBCs hemolysis were determined by comparing the absorbance of hemoglobin in the tested samples to the absorbance of hemoglobin in completely hemolyzed cells (100%). Samples achieving total hemolysis (100%) were generated by adding distilled water.

SMILES	hemolysis at 24 h, 30 µM
O=c1cc(-c2ccccc2)oc2ccc(Cl)cc12 [D4, 6-chloroflavone]	10.8 ± 5.46%

same assay, conditions: human, human red blood cells (erythrocytes), 40 μM, read-out: degree of haemolysis

SMILES	hemolysis at 24 h, 40 µM
O=c1cc(-c2cccc(Cl)c2)oc2ccccc12 [D2, 3′-chloroflavone]	16 ± 1.78%

same assay, conditions: human, human red blood cells (erythrocytes), 50 μM, read-out: degree of haemolysis

SMILES	hemolysis at 24 h, 50 µM
O=c1cc(-c2cccc(Cl)c2)oc2ccccc12 [D2, 3′-chloroflavone]	22.7 ± 1.98%

test system: not given; assay: not given; details: not given

melting point	SMILES
109 to 110 °C	O=c1cc(-c2ccccc2Cl)oc2ccccc12 [D1, 2′-chloroflavone]

test system: breast cancer cells MCF-7; assay: not given; set-up: method as in PMID 32364671; details: cited from earlier work

SMILES	IC50
O=c1cc(-c2ccccc2)oc2c(Br)c(O)c(O)c(O)c12 [8-bromobaicalei]	10 ± 3 µM
